Data set [1] has as its system MMP-9 secretion in differentiated THP-1 cells. In words: LPS induced MMP-9 secretion in differentiated THP-1 cells (ELISA). It counts as cell-based, human. The conditions noted are these: LPS 1 μg/mL; for reduction of MMP-9 secretion: 24 hours. On the procedure:
THP-1 cells (ATCC, ATCTIB202) were grown in RPMI-1640 (Gibco, 11875093)+0.05 mM 2-mercaptoethanol+10% fetal calf serum (FCS)+1% pen-strep. For experiments, the cells were cultured in RPMI-1640 medium with 10% fetal bovine serum (FBS) only.
THP-1 monocyte cells were seeded at a density of 2.5×10^5 cells/ml in 96-well plates and differentiated into macrophages using 10 ng/ml of phorbol 12-myristate 13-acetate (PMA) (Bergin et al) (Sigma, P1585-1MG, Lot #SLBX889, 100% purity) for 72 hours. PMA media was then removed from the differentiated THP-1 cells, the cells were then washed once in RPMI-1640 media and then left to rest for ˜5 hours.
The differentiated THP-1 cells were stimulated with LPS from E. coli […] (Sigma, L6529; Lot#037K4068). LPS tested at a concentration of 1 μg/ml (Kong et al). The cells were incubated with LPS alone or in combination with 3,6,7-trimethyllumazine (received from University of Auckland and diluted in RPMI-1640 at a stock concentration of 1 mg/ml, stock was stored in fridge for 2 days before use) at a concentration range between 2.5-40 μg/ml. 6 μM Azithromycin (Sigma, Cat #75199-25MG, Lot#069M4826V) was used as a positive control (Vandooren et al). The cells were then incubated with the different treatments for 24 hours (Kong et al). After 24 hours, the cell culture media was collected and measured for MMP-9 concentration using MMP-9 ELISA (R&D systems, RDSDY91105 lot #P239459 and DY008 Lot #P239900). The cells were then incubated with WST-1 for cell viability.
This human MMP-9 assay measures the 92 kDa Pro-MMP-9 and the 82 kDa active MMP-9. […] This assay also recognizes human MMP-9 when complexed to Lipocalin-2/NGAL, isolated from human source material.
In order to better capture the variability, each treatment was done at least in triplicate in each plate (2 plates). Media from the triplicate wells were pooled and analysed in duplicates for the MMP-9 ELISA. A student's test was performed in excel between media with LPS and the different treatments.

Data set [2] concerns the target T1, recombinant MMP-9 enzyme (Homo sapiens, UniProt P14780).
T1 construct: purchased Abcam (Melbourne, Australia)
Nature of the data set: MMP-9 inhibitor screening assay (fluorometric). It counts as biochemical. On the procedure: The MMP-9 inhibitor screening assay (fluorometric) kits were purchased from Abcam (Melbourne, Australia). The fluorometric kit contains the recombinant MMP-9 enzyme, MMP inhibitor NNGH (N-isobutyl-N-[4-methoxyphenylsulfonyl]glycyl hydroxamic acid), MMP fluorogenic substrate solubilised in DMSO, the fluorometric assay buffer and 96-well clear microplate.
Inhibitory activity on MMP-9 was assessed using the commercial MMP-9 inhibitor screening assay kit. MMP-9 activity was expressed as a change in fluorescence intensity measured using SpectraMax iD3 multi-mode microplate reader (Molecular Devices, San Jose, USA).
The assay employs a FRET-tagged (fluorescence resonance energy transfer) substrate, which can be hydrolysed by MMP-9 at a specific site (Abcam, 2018). The cleavage of the FRET substrate releases the quenched fluorescent Mca (7- methoxycoumarin-4-yl)-acetyl group (Abcam, 2018). The kit employs a quenched fluorogenic substrate Mca-Pro-Leu-Gly-Leu-Dpa-Ala-Arg-NH2, where the Mca fluorescence is quenched by Dpa until cleavage by MMPs. The amount of fluorescent product yielded by MMP-9 can be detected fluorometrically and it is proportional to the enzyme activity. Fluorescence were measured at ex320 nm-em395 nm to minimise fluorescence interference from 3,6,7-trimethyllumazine at ex330 nm-em470 nm. Assays were performed on a 96-well clear microplate included in the kit with a final reaction volume of 100 µL. Before adding the substrate, MMP-9 enzymes were incubated with testing samples and inhibitor control for 60 min at 37° C. The fluorescent substrate was added into each well prior to the assay to initiate the reaction. The assay was allowed to run for 20 min and the temperature in the reaction chamber was set to 37° C.
Testing samples were prepared comprising 3,6,7-trimethyllumazine prepared as outlined above.
A positive control was included with only MMP-9 and the fluorescent substrate, used as a reference to calculate the percentage inhibition. A broad spectrum MMP inhibitor NNGH was included as the negative control. […]

Data set [3] addresses T1, recombinant MMP-9 enzyme. In words: MMP-9 inhibitor screening assay (colorimetric). It counts as biochemical. Conditions: read-out: percentage inhibition of MMP-9. From the text: The MMP-9 inhibitor screening assay (colorimetric) kits were purchased from Abcam (Melbourne, Australia). The kit contains the recombinant MMP-9 enzyme, MMP inhibitor NNGH, MMP chromogenic substrate, the colorimetric assay buffer and 96-well clear microplate.
The colorimetric kit uses a thiopeptide as a chromogenic substrate (Ac-PLG- [2-mercapto-4-methyl-pentanoyl]-LG-[…]), which can be hydrolysed by MMPs to produce a sulfhydryl group. This intermediate product further reacts with DTNB [5,5′-dithiobis(2-nitrobenzoic acid), Ellman's reagent] to form 2-nitro-5-thiobenzoic acid, which can be detected by absorbance at 412 nm. The change in absorbance was measured using the SpectraMax iD3 multi-mode microplate reader (Molecular Devices, San Jose, USA). The assays are performed on a convenient 96-wells microplate with a final reaction volume of 100 μL. Prior to the assay, all testing samples and inhibitor controls were incubated with MMP-9 for 60 min at 37° C. […] The absorbance was measured at 1 min intervals during the first 20 min, then 10 min intervals till the end of assay.
Recombinant MMP-9 and the chromogenic substrate were used as the positive control to represent 100% enzyme activity. […] A range of 3,6,7-trimethyllumazine concentrations were diluted with the colorimetric assay buffer to measure the absorbance of the reaction product.

Another data set concerns active MMP-9. Nature of the data set: Gelatin gel zymography, active MMP-9 band. It counts as biochemical. Conditions: active MMP-9 band (~37 kDa); supplemented developing buffer. As for the experimental part:
(§1) Novex™ 10% Zymogram Plus (Gelatin) Protein Gels (15 wells) were purchased from Thermo Fisher Scientific Inc. (Auckland, New Zealand). All chemicals required for the zymogram analysis were also purchased from Thermo Fisher, these include Novex™ Sharp Pre-stained Protein Standard, Novex Tris-Glycine SDS sample buffer, Novex Tris-Glycine SDS running buffer, Novex Zymogram renaturing buffer and Novex Zymogram developing buffer. […] Gelatin gel zymography was performed as an independent technique to confirm the inhibition of MMP-9 from 3,6,7-trimethyllumazine. This technique uses a non-reducing SDS-PAGE (sodium dodecyl sulfate polyacrylamide gel electrophoresis) gel embedded with gelatin. Proteins are migrated and separated during electrophoresis. The SDS is removed after electrophoresis and the gel is then incubated with essential cofactors required for enzymatic activity. The embedded gelatin can be digested by MMP-9, resulting in clear bands on a dark blue background after staining with Coomassie blue dyes. The gelatinase activity is represented by band densitometry, which can be assessed with image analysis software. […]
(§2) After incubation, the gelatin gel was rinsed with water for three times (5 min each) under gentle agitation. […] MMP-9 activities were analysed using densitometry on ImageJ Version 1.52a.

Data set [4] relates to inactive MMP-9 (pro-MMP-9). In words: Gelatin gel zymography, inactive (pro-)MMP-9 band. It counts as biochemical. Conditions: inactive MMP-9 band; supplemented developing buffer. On the procedure:
as §1, §2

Data set [5] in a line: Simulated gastrointestinal digestion (SGF then SIF), 3,6,7-trimethyllumazine retention by HPLC. It counts as in vitro ADME. Conditions: from four Manuka honey samples; 2 h gastric plus 4 h intestinal digestion. On the procedure: The simulated gastrointestinal digestion was carried out using a static model. The simulated gastric fluid (SGF) and the simulated intestinal fluid (SIF) were prepared in accordance with a global consensus protocol (Minekus et al 2014). The SGF has a pH 3 to mimic the fed-state of the stomach. When mixed with Manuka honey (or a honey solution), the final mixture contains 2000 U/mL of pepsin. The SIF has pH 7 to mimic the fed-state of the small intestine, containing 2 mg/mL of pancreatin (8 x USP, or based on a protease activity of 200 U/mL) and 20 mM of porcine bile extract before use.
In the simulated gastric digestion, 2 g of Manuka honey was incubated in 2 mL of SGF at 37° C. under 95 rpm shaking for a period of 2 h (triplicates). At selected time points (0, 30, 60 and 120 min), a predetermined volume (0.1 mL) of the mixture was withdrawn for 3,6,7-trimethyllumazine analysis. […]
The gastric and intestinal digesta for 3,6,7-trimethyllumazine analysis was treated to remove insoluble fractions (e.g. pancreatin) before HPLC analysis. […] The amount of 3,6,7-trimethyllumazine at different time points was analysed using a reverse-phase HPLC system, which has been previously used to analyse 3,6,7-trimethyllumazine and leptosperin as reported in the literature (Bin Lin et al 2017). […] The signal of 3,6,7-trimethyllumazine was detected at 320 nm.

In data set [6] the test system is differentiated THP-1 cells. Nature of the data set: Cell viability (WST-1). It counts as cell-based. Conditions: 40 μg/mL. As for the experimental part:
To measure cytotoxicity of 3,6,7-trimethyllumazine at different doses, 2-(4-lodophenyl)-3-(4-nitrophenyl)-5-(2,4-disulfophenyl)-2H-tetrazolium, monosodium salt (WST-1) (Roche, 11644807001, Lot #45255800) was used. WST-1 is a cell proliferation reagent for measurement of cellular proliferation, viability, and cytotoxicity using a colorimetric assay (Gosert (2011); Peskin (2000)).
After incubation, a portion of the culture media was taken and stored for MMP-9 secretion testing using ELISA. The remaining media in the plates was then removed and 100 μl of WST-1 in RPMI-1640 media (1:10 dilution) was added to each cell well and incubated at 37° C. for a further 4 hours. The plates were then read using a plate reader at wavelength of 450 nm. Cytotoxicity was calculated as follows: • [WST-1 score for each sample/WST-1 score for the control]×100 • A WST-1 score below 80% will be considered cytotoxic.
In general terms: Tetrazolium assays rely on reduction of a dye to a coloured formazan, in cell work by metabolically active cells.

The values that follow come from patent US20220296600A1, “USE OF A COMPOSITION COMPRISING 3,6,7-TRIMETHYLLUMAZINE FOR PREVENTING, AMELIORATING OR TREATING MMP-9 ASSOCIATED CONDITIONS AND INFLAMMATION” (COMVITA LIMITED, priority 2019, published 2022).

As usually defined, the inhibition is the percentage by which the read-out fell short of the control. Broadly, the IC50 is the midpoint of a concentration-inhibition curve.

T1 sequence (P14780 94-707): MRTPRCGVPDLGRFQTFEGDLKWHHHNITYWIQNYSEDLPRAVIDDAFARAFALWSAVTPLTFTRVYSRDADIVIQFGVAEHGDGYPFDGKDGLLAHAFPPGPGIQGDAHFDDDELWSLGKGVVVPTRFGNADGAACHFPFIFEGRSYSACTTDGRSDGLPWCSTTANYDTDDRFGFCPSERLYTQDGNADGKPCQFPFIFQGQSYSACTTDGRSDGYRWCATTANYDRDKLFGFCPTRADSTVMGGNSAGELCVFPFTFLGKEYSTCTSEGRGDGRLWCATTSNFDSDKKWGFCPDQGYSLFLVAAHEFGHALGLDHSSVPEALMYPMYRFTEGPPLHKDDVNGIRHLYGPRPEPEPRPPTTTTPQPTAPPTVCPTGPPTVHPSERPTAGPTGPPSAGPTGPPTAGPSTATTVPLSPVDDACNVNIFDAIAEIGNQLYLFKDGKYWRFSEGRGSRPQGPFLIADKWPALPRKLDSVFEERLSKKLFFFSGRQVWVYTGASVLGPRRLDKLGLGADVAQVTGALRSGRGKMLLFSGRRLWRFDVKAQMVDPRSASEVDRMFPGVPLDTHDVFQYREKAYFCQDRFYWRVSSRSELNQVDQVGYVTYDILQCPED

Consider `CC[C@H]1OC(=O)[C@H](C)[C@@H](O[C@H]2C[C@@](C)(OC)[C@@H](O)[C@H](C)O2)[C@H](C)[C@@H](O[C@@H]2O[C@H](C)C[C@H](N(C)C)[C@H]2O)[C@](C)(O)C[C@@H](C)CN(C)[C@H](C)[C@@H](O)[C@]1(C)O` [Azithromycin, reference compound], for which, in data set [1] (6 μM positive control, absolute values, P=0.00), the “effect on MMP-9 secretion” value is given as “inhibits mmp-9 secretion”.

For `Cc1nc2[nH]c(=O)n(C)c(=O)c2nc1C` [3,6,7-trimethyllumazine], on recombinant MMP-9 enzyme [2] (2.5 μg/ml, not significant (p>0.05), read-out: percentage inhibition of MMP-9 activity), the inhibition at 2.5 µg/mL is 12%. In addition, the IC50 at recombinant MMP-9 enzyme [2] (fluorometric, second-order polynomial fit of % inhibition vs concentration) was 55.8 µM. For the same compound, the inhibition at 40 µg/mL at recombinant MMP-9 enzyme [3] (40 μg/ml) came out at 10%. Also, the inhibition at 80 µg/mL at recombinant MMP-9 enzyme [3] (80 μg/ml) is 10%. Moreover, the “percentage inhibition of gelatinase activity (densitometry)” value in the data set on active MMP-9 worked out at 31%; in data set [4], 17%. Further, in data set [5], the “initial 3,6,7-trimethyllumazine amount recovered in the digesta” value is given as about 100%. In addition, the “reduction of MMP-9 secretion” value was found to be 23% in data set [1] (30 μg/mL) and 38% in data set [1] (40 μg/mL). The “WST-1 score (cell viability; below 80% considered cytotoxic)” value in data set [6] was found to be 79.8%.

As for `COc1ccc(S(=O)(=O)N(CC(=O)NO)CC(C)C)cc1` [NNGH, N-isobutyl-N-[4-methoxyphenylsulfonyl]glycyl hydroxamic acid, reference compound], the “change in fluorescence intensity (MMP-9 activity)” value at recombinant MMP-9 enzyme [2] (NNGH inhibitor control) is given as “almost no change in fluorescence”.
